The first assay relates to persian speedwell. As to the kind of experiment: Test Example 5: herbicidal effect by foliage application, plastic box (Table 20, symbol R). The assay is classed as in vivo, Persian speedwell (Veronica persica). The following applies: foliage application, 320 g/ha, three weeks after application. A digest of the protocol: (§1)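 Sow seeds spot-wise in sterilized diluvial soil; cover with ~1.5 cm soil. Grow 14 days in greenhouse, 25° C. to 30° C. Spray foliage with emulsion diluted to predetermined amount. Rate effect after 3 weeks.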
With `CCCC(=O)Oc1c(CC)nn(C)c(=O)c1-c1c(-c2ccc(Cl)cc2)sc2ccc(F)cc12` [2-409], the “R: persian speedwell, herbicidal effect grade” value is 4 (Herbicidal rate of 70% or more and less than 90%).

The subject of a further assay is late watergrass. Nature of the assay: Test Example 1: herbicidal activity, application before weed generation under submerged conditions (Table 16, symbol A). It counts as in vivo, late watergrass (Echinochloa oryzicola). The following applies: amount of applied herbicide 320 g/ha. The method, boiled down: (§2)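 Submerged Wagner pots (alluvial soil, 4 cm water) sown with weed seeds and planted with 2.5-leaf rice seedlings; emulsifiable concentrate diluted in water applied to water surface on sowing day. Held in greenhouse at 25-30 °C; injury scored 0-5 by herbicidal rate after three weeks.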
`CCCC(=O)Oc1c(CC)nn(C)c(=O)c1-c1c(-c2ccc(Cl)cc2)sc2ccc(F)cc12` [2-409]: the “Herbicidal effect, A: late watergrass” value is 3 (Herbicidal rate of 40% or more and less than 70%).

The test system of a further assay is Japanese bulrush. Nature of the assay: Test Example 1: herbicidal activity, application before weed generation under submerged conditions (Table 16, symbol B). The assay is classed as in vivo, Japanese bulrush (Schoenoplectus juncoides). The following applies: amount of applied herbicide 320 g/ha. A digest of the protocol: as §2
`CCCC(=O)Oc1c(CC)nn(C)c(=O)c1-c1c(-c2ccc(Cl)cc2)sc2ccc(F)cc12` [2-409]: the “Herbicidal effect, B: Japanese bulrush” value is 3 (Herbicidal rate of 40% or more and less than 70%).

Another assay concerns oval-leafed pondweed. As to the kind of experiment: Test Example 2: herbicidal activity, application during weed generation under submerged conditions (Table 17, symbol C). It counts as in vivo, oval-leafed pondweed (Monochoria vaginalis). The following applies: AAH 320 g/ha; application during weed generation, submerged conditions. The method, boiled down:
(§3)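 Steps: fill Wagner pots with alluvial soil; add water to give 4 cm depth; sow the species mixed; grow under glass at 25–30° C.; at 1–2 leaves apply water-diluted emulsion formulation to the water surface at a fixed herbicide amount; score after 3 weeks.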
On to `CCCC(=O)Oc1c(CC)nn(C)c(=O)c1-c1c(-c2ccc(Cl)cc2)sc2ccc(F)cc12` [2-409], for which the “herbicidal effect rating, C: oval-leafed pondweed” value is 3 (Herbicidal rate of 40% or more and less than 70%).

A further assay relates to lambsquarters. Nature of the assay: Test Example 5: herbicidal effect by foliage application, plastic box (Table 20, symbol O). The following applies: foliage application, 320 g/ha, three weeks after application. It counts as in vivo, lambsquarters (Chenopodium album). A digest of the protocol: as §1
Turning to `CCCC(=O)Oc1c(CC)nn(C)c(=O)c1-c1c(-c2ccc(Cl)cc2)sc2ccc(F)cc12` [2-409], the “O: lambsquarters, herbicidal effect grade” value is 4 (Herbicidal rate of 70% or more and less than 90%).

A further assay deals with wild oat. Nature of the assay: Test Example 5: herbicidal effect by foliage application, plastic box (Table 20, symbol I). It counts as in vivo, wild oat (Avena fatua). The following applies: foliage application, 320 g/ha, three weeks after application. The method, boiled down:
as §1
`CCCC(=O)Oc1c(CC)nn(C)c(=O)c1-c1c(-c2ccc(Cl)cc2)sc2ccc(F)cc12` [2-409]: the “I: wild oat, herbicidal effect grade” value is 0 (Herbicidal rate of 5% or less (almost no effect)).

A further assay concerns barnyard grass. Nature of the assay: Test Example 3: herbicidal effect by foliage application, Wagner pot (Table 18, symbol H). It counts as in vivo, barnyard grass (Echinochloa crus-galli). The following applies: amount of applied herbicide 320 g/ha. A digest of the protocol:
(§4)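 Plants were sown in alluvial soil held under 0.1–0.5 cm standing water and grown 14 days in a greenhouse at 25–30 °C. An emulsifiable formulation, water-diluted to the set dose, was then sprayed onto the foliage, and effects were scored three weeks later using previously defined criteria.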
As for `CCCC(=O)Oc1c(CC)nn(C)c(=O)c1-c1c(-c2ccc(Cl)cc2)sc2ccc(F)cc12` [2-409], the “herbicidal effect on H: barnyard grass” value is reported as 5 (Herbicidal rate of 90% or more (almost completely withered)).

The test system of another assay is Italian ryegrass. Nature of the assay: Test Example 5: herbicidal effect by foliage application, plastic box (Table 20, symbol K). The following applies: foliage application, 320 g/ha, three weeks after application. The assay is classed as in vivo, Italian ryegrass (Lolium multiflorum). A digest of the protocol: as §1
For `CCCC(=O)Oc1c(CC)nn(C)c(=O)c1-c1c(-c2ccc(Cl)cc2)sc2ccc(F)cc12` [2-409], the “K: Italian ryegrass, herbicidal effect grade” value was 1 (Herbicidal rate of 5% or more and less than 20%).

Another assay concerns Chinese sprangletop. As to the kind of experiment: Test Example 3: herbicidal effect by foliage application, Wagner pot (Table 18, symbol D). It counts as in vivo, chinese sprangletop (Leptochloa chinensis). The following applies: amount of applied herbicide 320 g/ha. The method, boiled down: as §4
Turning to `CCCC(=O)Oc1c(CC)nn(C)c(=O)c1-c1c(-c2ccc(Cl)cc2)sc2ccc(F)cc12` [2-409], the “herbicidal effect on D: Chinese sprangletop” value was 4 (Herbicidal rate of 70% or more and less than 90%).

The next assay relates to barnyard grass. As to the kind of experiment: Test Example 5: herbicidal effect by foliage application, plastic box (Table 20, symbol H). It counts as in vivo, barnyard grass (Echinochloa crus-galli). The following applies: foliage application, 320 g/ha, three weeks after application. The method, boiled down:
as §1
For the compound `CCCC(=O)Oc1c(CC)nn(C)c(=O)c1-c1c(-c2ccc(Cl)cc2)sc2ccc(F)cc12` [2-409], the “H: barnyard grass, herbicidal effect grade” value was 3 (Herbicidal rate of 40% or more and less than 70%).

The next assay relates to Japanese bulrush. As to the kind of experiment: Test Example 2: herbicidal activity, application during weed generation under submerged conditions (Table 17, symbol B). The assay is classed as in vivo, Japanese bulrush (Schoenoplectus juncoides). The following applies: AAH 320 g/ha; application during weed generation, submerged conditions. A digest of the protocol:
as §3
On to `CCCC(=O)Oc1c(CC)nn(C)c(=O)c1-c1c(-c2ccc(Cl)cc2)sc2ccc(F)cc12` [2-409], for which the “herbicidal effect rating, B: Japanese bulrush” value is 3 (Herbicidal rate of 40% or more and less than 70%).

In the next assay the test system is rice flat sedge. As to the kind of experiment: Test Example 3: herbicidal effect by foliage application, Wagner pot (Table 18, symbol E). The following applies: amount of applied herbicide 320 g/ha. The assay is classed as in vivo, rice flat sedge (Cyperus iria). A digest of the protocol:
as §4
As to `CCCC(=O)Oc1c(CC)nn(C)c(=O)c1-c1c(-c2ccc(Cl)cc2)sc2ccc(F)cc12` [2-409], the “herbicidal effect on E: rice flat sedge” value was 5 (Herbicidal rate of 90% or more (almost completely withered)).

In another assay the test system is oval-leafed pondweed. As to the kind of experiment: Test Example 1: herbicidal activity, application before weed generation under submerged conditions (Table 16, symbol C). It counts as in vivo, oval-leafed pondweed (Monochoria vaginalis). The following applies: amount of applied herbicide 320 g/ha. A digest of the protocol:
as §2
For the compound `CCCC(=O)Oc1c(CC)nn(C)c(=O)c1-c1c(-c2ccc(Cl)cc2)sc2ccc(F)cc12` [2-409], the “Herbicidal effect, C: oval-leafed pondweed” value is 2 (Herbicidal rate of 20% or more and less than 40%).

In a further assay the test system is southern crabgrass. As to the kind of experiment: Test Example 5: herbicidal effect by foliage application, plastic box (Table 20, symbol F). The assay is classed as in vivo, southern crabgrass (Digitaria ciliaris). The following applies: foliage application, 320 g/ha, three weeks after application. A digest of the protocol: as §1
`CCCC(=O)Oc1c(CC)nn(C)c(=O)c1-c1c(-c2ccc(Cl)cc2)sc2ccc(F)cc12` [2-409]: the “F: southern crabgrass, herbicidal effect grade” value is 3 (Herbicidal rate of 40% or more and less than 70%).

A further assay concerns velvetleaf. As to the kind of experiment: Test Example 5: herbicidal effect by foliage application, plastic box (Table 20, symbol M). It counts as in vivo, velvetleaf (Abutilon theophrasti). The following applies: foliage application, 320 g/ha, three weeks after application. The method, boiled down: as §1
`CCCC(=O)Oc1c(CC)nn(C)c(=O)c1-c1c(-c2ccc(Cl)cc2)sc2ccc(F)cc12` [2-409]: the “M: velvetleaf, herbicidal effect grade” value is given as 5 (Herbicidal rate of 90% or more (almost completely withered)).

For a further assay, the system named is blackgrass. As to the kind of experiment: Test Example 5: herbicidal effect by foliage application, plastic box (Table 20, symbol J). The following applies: foliage application, 320 g/ha, three weeks after application. It counts as in vivo, blackgrass (Alopecurus myosuroides). A digest of the protocol:
as §1
`CCCC(=O)Oc1c(CC)nn(C)c(=O)c1-c1c(-c2ccc(Cl)cc2)sc2ccc(F)cc12` [2-409]: the “J: blackgrass, herbicidal effect grade” value is on record as 0 (Herbicidal rate of 5% or less (almost no effect)).

The test system of a further assay is green foxtail. As to the kind of experiment: Test Example 5: herbicidal effect by foliage application, plastic box (Table 20, symbol G). The following applies: foliage application, 320 g/ha, three weeks after application. It counts as in vivo, green foxtail (Setaria viridis). The method, boiled down: as §1
Consider `CCCC(=O)Oc1c(CC)nn(C)c(=O)c1-c1c(-c2ccc(Cl)cc2)sc2ccc(F)cc12` [2-409], for which the “G: green foxtail, herbicidal effect grade” value was 4 (Herbicidal rate of 70% or more and less than 90%).

The test system of a further assay is redroot pigweed. As to the kind of experiment: Test Example 5: herbicidal effect by foliage application, plastic box (Table 20, symbol N). The assay is classed as in vivo, redroot pigweed (Amaranthus retroflexus). The following applies: foliage application, 320 g/ha, three weeks after application. A digest of the protocol:
as §1
On to `CCCC(=O)Oc1c(CC)nn(C)c(=O)c1-c1c(-c2ccc(Cl)cc2)sc2ccc(F)cc12` [2-409], for which the “N: redroot pigweed, herbicidal effect grade” value is 5 (Herbicidal rate of 90% or more (almost completely withered)).

A further assay relates to chickweed. Nature of the assay: Test Example 5: herbicidal effect by foliage application, plastic box (Table 20, symbol P). The following applies: foliage application, 320 g/ha, three weeks after application. It counts as in vivo, common chickweed (Stellaria media). The method, boiled down:
as §1
For `CCCC(=O)Oc1c(CC)nn(C)c(=O)c1-c1c(-c2ccc(Cl)cc2)sc2ccc(F)cc12` [2-409], the “P: chickweed, herbicidal effect grade” value was 4 (Herbicidal rate of 70% or more and less than 90%).

For the next assay, the system named is late watergrass. Nature of the assay: Test Example 2: herbicidal activity, application during weed generation under submerged conditions (Table 17, symbol A). It counts as in vivo, late watergrass (Echinochloa oryzicola). The following applies: AAH 320 g/ha; application during weed generation, submerged conditions. The method, boiled down: as §3
Take `CCCC(=O)Oc1c(CC)nn(C)c(=O)c1-c1c(-c2ccc(Cl)cc2)sc2ccc(F)cc12` [2-409]: the “herbicidal effect rating, A: late watergrass” value is 2 (Herbicidal rate of 20% or more and less than 40%).

Another assay relates to windgrass. As to the kind of experiment: Test Example 5: herbicidal effect by foliage application, plastic box (Table 20, symbol L). The assay is classed as in vivo, windgrass (Apera spica-venti). The following applies: foliage application, 320 g/ha, three weeks after application. The method, boiled down: as §1
In the case of `CCCC(=O)Oc1c(CC)nn(C)c(=O)c1-c1c(-c2ccc(Cl)cc2)sc2ccc(F)cc12` [2-409], the “L: windgrass, herbicidal effect grade” value was 0 (Herbicidal rate of 5% or less (almost no effect)).

These data come from patent publication US20230085307A1, “PYRIDAZINONE COMPOUND AND HERBICIDE” (NISSAN CHEMICAL CORPORATION, priority 2019, published 2023).
